Measured values taken from patent US7763640B2, “Substituted oxyguanidines” (Bayer CorpScience AG, priority 2004, dated 2010).

Key:
[1] = test system: green peach aphid (Myzus persicae); experiment: Myzus test, spray treatment, Example B; assay type: in vivo; conditions: Chinese cabbage leaves
Description: To prepare a suitable active compound preparation 1 part by weight of the active compound is mixed with the given amount of solvent and the given amount emulsifier and the concentrate is diluted to the desired concentration with water.
Chinese cabbage leaves (Brassica pekinensis) infested with all stages of the green peach aphid (Myzus persicae) were sprayed with an active compound preparation at the desired concentration.
(§1) After the desired time the death rate in % is determined. Here 100% means that all aphids were killed; 0% means that no aphids were killed.

[2] = test system: mixed thrips population (Frankliniella occidentalis); experiment: Frankliniella occidentalis test, Example H; assay type: in vivo; conditions: 100 ppm, cotton plants, spraying
Description: (§2) To prepare a suitable active compound preparation 1 part by weight of the active compound is mixed with the given amount of solvent and the given amount of emulsifier and the concentrate is diluted to the desired concentration with water containing emulsifier.
Cotton plants (Gossypium hirsutum) are treated by spraying with the active compound preparation at the desired concentration and infected with a mixed thrips population (Frankliniella occidentalis).
After the desired time the death rate in % is determined. Here 100% means that all thrips were killed; 0% means that no thrips were killed.

[3] = test system: green peach aphid (Myzus persicae); experiment: Myzus test, spray treatment, Example F; assay type: in vivo; conditions: 500 g a.i./ha, China cabbage leaf sections
Description: as §2
China cabbage leaf sections (brassica pekinensis) that are infected with all stages of the green peach aphid (Myzus persicae) are sprayed with an active compound preparation at the desired concentration.
(§3) After the desired time the activity in % is determined. Here 100% means that all aphids were killed; 0% means that no aphids were killed.

[4] = test system: green peach aphid (Myzus persicae); experiment: Myzus persicae test (cabbage leaves, immersion), Example A; assay type: in vivo; conditions: for Death rate in % after 6d: 1000 ppm, cabbage leaves (Brassica oleracea)
Description: (§4) To prepare a suitable active compound preparation 1 part by weight of the active compound is mixed with the given amount of solvent and the given amount of emulsifier and the concentrate is diluted to the desired concentration with water.
Cabbage leaves (Brassica oleracea) that are highly infested with the green peach aphid (Myzus persicae) are treated by immersion in the active compound preparation at the desired concentration.
as §1

[5] = test system: green peach aphid (Myzus persicae); experiment: Myzus persicae test, soil application, Example C; assay type: in vivo; conditions: pepper plant
Description: as §4
The active compound preparation is mixed with soil. The concentration given relates to the amount of active compound per unit volume soil (mg/l=ppm). The treated soil is filled into pots and planted with one pepper plant (Capsicum annuum). After one week infection is carried out with the green peach aphid (Myzus persicae).
as §3

[6] = test system: cotton aphid (Aphis gossypii); experiment: Aphis gossypii test, soil application, Example D; assay type: in vivo; conditions: cotton plant
Description: as §4
The active compound preparation is mixed with soil. The concentration given relates to the amount of active compound per unit volume soil (mg/l=ppm). The treated soil is filled into pots and planted with one cotton plant (Gossypium hirsutum). After a week infection is carried out with the cotton aphid (Aphis gossypii).
as §1

[7] = test system: white fly (Bemisia tabaci, resistant strain); experiment: Bemisia tabaci test, resistant strain, Example E; assay type: in vivo; conditions: cotton leaf sections, immersion
Description: as §2
Leaf sections of cotton plants (Gossypium hirsutum) are treated by immersion in the active compound preparation at the desired concentration and after drying of the coating are infected with adults of the white fly (Bemisia tabaci, resistant strain).
After the desired time the death rate in % is determined. Here 100% means that all animals were killed; 0% means that no animals were killed.

physchem = conditions: pH 2
[8] = test system: fall army worm (Spodoptera frugiperda); experiment: Spodoptera frugiperda test, Example G; assay type: in vivo; conditions: 500 g a.i./ha, cabbage leaves, immersion, caterpillars
Description: as §2
Cabbage leaves (Brassica oleracea) are treated by immersion in the active compound preparation at the desired concentration and infected with caterpillars of the fall army worm (Spodoptera frugiperda) while the leaves are still wet.
After the desired time the death rate in % is determined. Here 100% means that all caterpillars were killed; 0% means that no caterpillars were killed.

CCON/C(=N/[N+](=O)[O-])NCc1ccc(Cl)nc1 [Example I-2]
Death rate in % after 4d ([1]; 500 ppm, after 4 d): 100% | activity in Myzus test, spray treatment [1]: good activity

CON/C(=N/[N+](=O)[O-])NCc1cnc(Cl)s1 [drawing 35]
Death rate in % after 14d [2]: 90%

CON/C(=N\[N+](=O)[O-])N(C)Cc1ccc(Cl)nc1
Activity in % after 5d [3]: 100%

CON/C(=N\C#N)NCc1ccc(Cl)nc1
Activity in % after 5d [3]: 100%

CON/C(=N/[N+](=O)[O-])NCc1cnc(Cl)s1 [Example I-5]
Death rate in % after 6d [4]: 98% | activity in Myzus persicae test ([4]; cabbage leaves): good activity | Death rate in % after 7d ([5]; 0.25 ppm (mg/l soil)): 85% | activity in Myzus persicae test, soil application [5]: good activity | Death rate in % after 7d ([6]; 0.25 ppm (mg/l soil)): 80% | activity in Aphis gossypii test, soil application [6]: good activity | Death rate in % after 3d ([7]; 1000 ppm, after 3 d, adults): 93% | activity in Bemisia tabaci test, resistant strain [7]: good activity | logP (physchem): 1.13

CON/C(=N\C#N)NCc1cnc(Cl)s1
Death rate in % after 7d [8]: 100%

CON/C(=N\[N+](=O)[O-])NCc1ccc(Cl)nc1 [Example I-1, N-methoxy-N′-(2-chloropyrid-5-ylmethyl)nitroguanidine]
Death rate in % after 6d [4]: 98% | Death rate in % after 7d ([5]; 8 ppm (mg/l soil)): 100% | Death rate in % after 7d ([6]; 8 ppm (mg/l soil)): 100%
